Several values for one entry are separate records, joined by “and”; a condition that tells them apart may be missing. Identical values can stand only once. Like-named read-outs stand apart in the source and are kept apart here.
Legend:
[1] = target: T1, hERG potassium channel (Homo sapiens, UniProt Q12809); experiment: hERG manual patch-clamp in HEK 293 cells; type: cell-based
T1 construct: expressed in transfected cells
Experimental: (§1) The effects of Compound I on a cloned human ether-à-go-go-related gene (hERG) potassium channels stably expressed in human embryonic kidney (HEK) 293 cells were measured using manual patch-clamp technique. Briefly, Compound I was soluble at 100 uM in 0.3% DMSO, pH 6.9. A does range-finding (DRF) assay was performed with Compound I at 3. 30, and 100 uM concentrations.

[2] = Tolerated and efficacious dose ranges in vivo
Experimental: Briefly, a colony forming unit assay was performed in vitro to evaluate the impact of HDAC inhibitors on the viability of erythroid and myeloid cells. Cells were treated with a dose response of each compound for 14 days. Cell colonies were quantified at the end of the experiment and compared to a solvent control. The efficacious dose range of Compound I was also plotted (the range was between 3 mg/kg and 75 mg/kg) (FIG. 12A). The IC50s for each compound were calculated from the erythroid and myeloid colony formation unit assay. These IC50s were normalized to the compound's potency against HDAC1 in the cellular NanoBRET assay to allow for head-to-head compound comparison (Table 4-1).
Compound I concentrations to HDAC1 or HDAC3 inhibition in vivo were plotted in FIG. 12D. Shaded boxes indicate tolerated and efficacious dose ranges of Compound I. Non-tolerated exposures were over 150 mg/kg.

[3] = Free fraction in mouse plasma; type: in vitro ADME; settings: C57BL/6 mouse plasma
[4] = target: T2, HDAC1 (Homo sapiens, UniProt Q13547); experiment: Cellular NanoBRET target engagement assay, HDAC1; type: cell-based; settings: in intact cells
T2 construct: expressed in transfected cells
T2 sequence (Q13547 whole entry): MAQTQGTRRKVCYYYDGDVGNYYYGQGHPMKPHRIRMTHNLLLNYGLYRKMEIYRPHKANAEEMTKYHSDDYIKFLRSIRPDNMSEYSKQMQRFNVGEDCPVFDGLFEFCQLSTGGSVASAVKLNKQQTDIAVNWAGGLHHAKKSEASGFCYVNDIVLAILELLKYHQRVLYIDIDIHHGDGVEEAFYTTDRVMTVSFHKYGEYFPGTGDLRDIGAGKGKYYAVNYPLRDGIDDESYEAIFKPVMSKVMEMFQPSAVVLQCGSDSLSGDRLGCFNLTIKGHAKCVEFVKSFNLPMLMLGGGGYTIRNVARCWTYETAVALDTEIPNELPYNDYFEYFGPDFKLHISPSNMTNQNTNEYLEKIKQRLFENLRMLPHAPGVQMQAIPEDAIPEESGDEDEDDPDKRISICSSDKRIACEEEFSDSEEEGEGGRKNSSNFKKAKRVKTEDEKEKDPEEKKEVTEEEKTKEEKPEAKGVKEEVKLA

[5] = target: CYP2D6 (Homo sapiens, UniProt P10635); experiment: Metabolism by recombinant human CYP2D6; type: in vitro ADME; settings: read-out: terminal half life (T1/2), rh CYP2D6
Chain of CYP2D6 (P10635 whole entry): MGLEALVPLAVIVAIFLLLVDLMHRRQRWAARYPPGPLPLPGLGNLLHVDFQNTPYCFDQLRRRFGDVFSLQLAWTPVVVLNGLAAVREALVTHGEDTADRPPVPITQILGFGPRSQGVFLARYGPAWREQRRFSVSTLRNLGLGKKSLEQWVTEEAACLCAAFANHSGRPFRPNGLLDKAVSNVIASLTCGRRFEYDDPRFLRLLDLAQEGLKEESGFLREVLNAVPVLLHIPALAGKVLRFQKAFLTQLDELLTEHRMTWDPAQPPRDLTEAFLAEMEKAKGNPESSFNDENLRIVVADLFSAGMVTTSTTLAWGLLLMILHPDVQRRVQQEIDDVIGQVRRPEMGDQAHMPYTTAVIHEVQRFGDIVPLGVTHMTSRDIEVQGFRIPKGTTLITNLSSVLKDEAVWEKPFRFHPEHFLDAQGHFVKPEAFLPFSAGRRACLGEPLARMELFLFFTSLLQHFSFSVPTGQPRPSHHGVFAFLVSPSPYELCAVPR
Experimental: (§2) Drug metabolizing enzymes involved in the biotransformation of Compound I were investigated using human liver microsomes (HLM) and recombinant enzymes. Compound I was stable in HLMs (>93% remaining after 240 minutes of incubation with HLM protein concentration at 0.6 mg/ml). CYP selective inhibitor experiments were not performed due to lack of appreciable Compound I turnover.

[6] = Stability in human liver microsomes; type: in vitro ADME; settings: 240 minutes; HLM protein concentration 0.6 mg/ml
Experimental: as §2

[7] = tested on: A549 cells; experiment: Nanostring PanCancer IO360 profiling of A549 cells; type: cell-based; settings: 96 hours; dose that increased H3K9Ac two-fold; vs vorinostat and domatinostat
Experimental: In this example, the gene expression changes between CoreDAC and other HDAC inhibitors was determined by Nanostring profiling.
Cells were harvested and Nanostring profiling using the PanCancer IO360 panel was performed on the three treatment groups (FIGS. 11A-C). The top three ranked gene ontology groups for each compound as determined from the Nanostring data in (FIGS. 11A-C top panel) were determined using the nSolver software (FIGS. 11A-C bottom panel).

[8] = target: CYP1A2 (Homo sapiens, UniProt P05177); experiment: Metabolism by recombinant human CYP1A2; type: in vitro ADME; settings: read-out: terminal half life (T1/2), rh CYP1A2
Chain of CYP1A2 (P05177 whole entry): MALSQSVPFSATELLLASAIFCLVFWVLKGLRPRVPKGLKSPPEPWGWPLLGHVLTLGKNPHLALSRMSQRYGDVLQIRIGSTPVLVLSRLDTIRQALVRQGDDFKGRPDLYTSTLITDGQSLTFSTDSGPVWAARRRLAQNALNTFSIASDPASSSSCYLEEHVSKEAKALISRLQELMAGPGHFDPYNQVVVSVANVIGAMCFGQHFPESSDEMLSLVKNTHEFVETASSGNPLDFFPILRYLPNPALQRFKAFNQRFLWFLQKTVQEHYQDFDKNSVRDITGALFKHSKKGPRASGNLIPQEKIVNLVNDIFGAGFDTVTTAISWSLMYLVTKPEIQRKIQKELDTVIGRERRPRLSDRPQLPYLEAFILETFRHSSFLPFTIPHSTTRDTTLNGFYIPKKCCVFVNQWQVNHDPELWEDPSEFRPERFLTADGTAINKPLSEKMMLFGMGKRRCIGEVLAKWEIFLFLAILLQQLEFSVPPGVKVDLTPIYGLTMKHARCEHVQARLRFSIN
Experimental: as §2

[9] = PK/PD study, plasma concentrations in MC38 tumor-bearing mice; type: in vivo, C57BL/6 mice; settings: for free unbound exposure in plasma: based on 10.05% free fraction
Experimental: In a separate PK/PD study, MC38 tumor-bearing female C57BL/6 mice (12/group) were assigned to treatment groups with similar mean tumor volumes of approximately 430 mm^3 and treated with vehicle (5% N,N-dimethylacetamide [DMA]+30% polyethylene glycol [PEG] 400+65% of 30% 2-hydroxypropyl-beta-cyclodextrin [HP-β-CD] in water) or Compound I at 30, 100, and 300 mg/kg once daily (QD) for 2 days. […] Peripheral blood mononuclear cells (PBMC) and tumor samples were harvested at 2, 8, and 24 hours after last dose. The PBMC samples were processed for determination of mean florescent level of acetyl-histone H2B by flow cytometry. Tumor samples were processed for determination of protein levels of acetyl-histone H3 by Western blot.

[10] = target: CYP2C9 (Homo sapiens, UniProt P11712); experiment: Metabolism by recombinant human CYP2C9; type: in vitro ADME; settings: read-out: terminal half life (T1/2), rh CYP2C9
Chain of CYP2C9 (P11712 whole entry): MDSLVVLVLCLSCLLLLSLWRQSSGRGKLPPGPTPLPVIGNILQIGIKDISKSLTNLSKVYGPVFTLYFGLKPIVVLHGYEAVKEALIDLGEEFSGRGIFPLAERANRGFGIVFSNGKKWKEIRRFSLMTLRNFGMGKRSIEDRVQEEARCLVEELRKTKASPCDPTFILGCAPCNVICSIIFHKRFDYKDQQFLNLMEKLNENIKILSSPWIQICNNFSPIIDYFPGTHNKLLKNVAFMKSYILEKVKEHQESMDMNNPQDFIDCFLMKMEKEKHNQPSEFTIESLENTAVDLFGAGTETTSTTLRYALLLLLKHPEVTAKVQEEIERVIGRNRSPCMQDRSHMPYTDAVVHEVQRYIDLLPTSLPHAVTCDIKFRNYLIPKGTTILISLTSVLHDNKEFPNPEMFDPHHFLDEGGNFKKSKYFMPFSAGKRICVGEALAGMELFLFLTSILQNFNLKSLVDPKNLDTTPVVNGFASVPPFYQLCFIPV
Experimental: as §2

[11] = Predicted human PK; settings: calculated from rodent and dog data
Experimental: The human PK parameters for a dose of Compound I that is predicted to be efficacious were calculated based on the data from rodent and dog studies and are presented in Table 6.

[12] = Solubility in hERG assay medium; type: physicochemical; settings: aqueous buffer, kinetic from dmso stock, 0.3% DMSO, pH 6.9
Experimental: as §1

[13] = Pharmacokinetics in rats; type: in vivo, Sprague Dawley rats; settings: rat, plasma
Experimental: The pharmacokinetics (PK) of Compound I in rats was determined following single IV bolus of 1 mg/kg in 20% wt/vol HPβCD, 1% vol/vol DMSO in saline or single PO dose of 3 mg/kg in 0.5% methylcellulose (MC) in water to male Sprague Dawley rats (fed for IV, fasted for PO). Plasma samples were collected from 3 animals/group at 0.05, 0.25, 0.5, 1, 2, 3, 4 8, and 24 hours after dosing.

[14] = Pharmacokinetics in beagle dogs; type: in vivo
Experimental: The PK of Compound I in beagle dogs was determined in plasma following single IV bolus and PO administration to non-naïve male and female beagle dogs. The vehicle used for IV was 20% wt/vol 2-hydroxypropyl β cyclodextrin (HPβCD), 1% vol/vol DMSO in saline, and PO was in 5% DMA, 30% PEG400 and 65% (30% HPβCD in water) (solution) or 0.5% MC (suspension). Plasma samples were collected from 3 animals/group at 0.083, 0.25, 0.5, 1, 3, 6, 9, 12, 24 and 48 hours after dosing.

[15] = 30, 100, 300 mg/kg QD for 2 days

T1 sequence (Q12809 whole entry): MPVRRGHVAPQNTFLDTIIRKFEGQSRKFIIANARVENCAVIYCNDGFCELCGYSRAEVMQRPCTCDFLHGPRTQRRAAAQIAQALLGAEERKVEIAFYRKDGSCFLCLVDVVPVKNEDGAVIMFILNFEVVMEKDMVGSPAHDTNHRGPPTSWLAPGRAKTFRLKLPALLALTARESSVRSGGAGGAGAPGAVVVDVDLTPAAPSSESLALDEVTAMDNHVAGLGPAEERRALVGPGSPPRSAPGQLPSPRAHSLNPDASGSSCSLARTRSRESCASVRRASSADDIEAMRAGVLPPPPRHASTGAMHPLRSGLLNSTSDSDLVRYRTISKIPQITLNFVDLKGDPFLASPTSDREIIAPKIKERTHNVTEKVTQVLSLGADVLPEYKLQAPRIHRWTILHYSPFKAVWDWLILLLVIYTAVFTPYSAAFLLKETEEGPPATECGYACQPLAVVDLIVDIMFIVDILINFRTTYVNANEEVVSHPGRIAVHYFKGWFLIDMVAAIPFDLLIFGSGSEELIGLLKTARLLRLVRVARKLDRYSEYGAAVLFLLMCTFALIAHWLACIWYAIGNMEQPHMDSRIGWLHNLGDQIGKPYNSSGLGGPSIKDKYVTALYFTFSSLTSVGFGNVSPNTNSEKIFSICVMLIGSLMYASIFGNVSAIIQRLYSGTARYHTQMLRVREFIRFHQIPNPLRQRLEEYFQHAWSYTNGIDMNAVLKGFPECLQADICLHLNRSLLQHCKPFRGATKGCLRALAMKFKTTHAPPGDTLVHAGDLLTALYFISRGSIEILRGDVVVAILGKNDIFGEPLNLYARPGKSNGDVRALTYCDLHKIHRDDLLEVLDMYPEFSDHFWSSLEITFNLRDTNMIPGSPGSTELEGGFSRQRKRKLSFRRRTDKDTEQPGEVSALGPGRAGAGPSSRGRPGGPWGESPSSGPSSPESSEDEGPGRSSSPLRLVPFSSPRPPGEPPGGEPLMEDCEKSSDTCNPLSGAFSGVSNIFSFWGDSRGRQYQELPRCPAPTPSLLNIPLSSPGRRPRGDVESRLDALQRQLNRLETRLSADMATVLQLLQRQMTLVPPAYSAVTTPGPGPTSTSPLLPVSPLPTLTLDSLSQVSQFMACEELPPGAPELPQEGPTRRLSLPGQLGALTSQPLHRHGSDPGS

C[S@@](=N)(=O)c1ccc(C(=O)Nc2cc(-c3ccc(F)cc3)ccc2N)cc1 [Compound I, (R)—N-(4-amino-4′-fluoro-[1,1′-biphenyl]-3-yl)-4-(S-methylsulfonimidoyl)benzamide]
IC50 ([1]; Table 5, read-out: hERG IC50): > 30 µM | IC50 ([1]; definitive hERG assay, replicates of 3, read-out: hERG potassium current IC50): 71.1 µM | inhibition at 3 µM ([1]; human, HEK 293 cells stably expressing hERG, 3 uM, dose range-finding assay, read-out: inhibition of hERG currents): 15.7% | inhibition at 30 µM ([1]; human, HEK 293 cells stably expressing hERG, 30 uM, dose range-finding assay, read-out: inhibition of hERG currents): 45.9% | inhibition at 100 µM ([1]; human, HEK 293 cells stably expressing hERG, 100 uM, dose range-finding assay, read-out: inhibition of hERG currents): 73.6% | Non-tolerated exposures [2]: over 150 mg/kg | fraction unbound [3]: 0.101 | selectivity for HDAC1 compared to HDAC3 [4]: > 10 fold | half-life [5]: > 1 h | remaining after incubation with HLM [6]: > 93% | number of genes regulated [7]: regulates the expression of fewer genes | half-life [8]: > 1 h | free unbound exposure in plasma ([9]; 30 mg/kg QD for 2 days): 5470 ng·h/mL | free unbound exposure in plasma ([9]; 100 mg/kg QD for 2 days): 17238 ng·h/mL | free unbound exposure in plasma ([9]; 300 mg/kg QD for 2 days): 69665 ng·h/mL | plasma concentrations versus dose [9, 15]: dose proportional | time of maximal plasma concentrations after the last dose [9, 15]: 1 h | half-life [10]: > 1 h | % F [11]: 78% | MRT [11]: 9.5 h | T1/2 [11]: 6.6 h | Total AUC ([11]; dose predicted to be efficacious): 6300 ng·h/mL | solubility [12]: ≥ 100 µM | half-life ([13]; male, Sprague Dawley): 4.8 h | clearance ([13]; male, Sprague Dawley, intravenous, 1 mg/kg, read-out: CL, p): 7.7 mL/min/kg | bioavailability ([13]; male Sprague Dawley rats, PO 3 mg/kg in 0.5% MC, fasted, IV 1 mg/kg, read-out: PO bioavailability (% F)): 95.4% and 95% | PO bioavailability (% F) ([14]; beagle dogs, solution at 3 mg/kg, fasted, 3 mg/kg): 67% | half-life ([14]; both sexes, beagle, dog, plasma): 8.4 h | clearance ([14]; both sexes, beagle, dog, plasma, intravenous, read-out: CL, p): 9.6 mL/min/kg | bioavailability ([14]; both sexes, beagle, dog, plasma, po, 3 mg/kg, beagle dogs, solution at 3 mg/kg, fasted, read-out: PO bioavailability (% F)): 67.4%

Reference: patent US20260041653A1, “AN HDAC INHIBITOR FOR TREATING CANCER WITH A MODIFIED STK11 ACTIVITY OR EXPRESSION” (Tango Therapeutics, Inc., priority 2022, published 2026)
